# Test results: ChEMBL document CHEMBL1201862, “PubChem BioAssay data set” (2004)
#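 48-hour exposure; five concentrations; linearly interpolated endpoints. Abbreviation: GI50, concentration required for 50% inhibition of growth.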 The source made the active and inactive calls. Cut-off read from the data, not from the text of the source: active = GI50 up to about 1.1 µM and inactive = higher.
# Tests used:
# Test in all cases: inhibition of tumour cell growth, NCI panel, 48 h
# [1] = test system: A498
# [2] = test system: BT-549
# [3] = test system: CCRF-CEM
# [4] = test system: DU-145
# [5] = test system: EKVX
# [6] = test system: HCT-15
# [7] = test system: Hs-578T
# [8] = test system: KM12
# [9] = test system: LOX IMVI
# [10] = test system: M14
# [11] = test system: MCF7
# [12] = test system: MDA-MB-435
# [13] = test system: MOLT-4
# [14] = test system: OVCAR-8
# [15] = test system: SF-268
# [16] = test system: SK-MEL-28
# [17] = test system: SK-OV-3
# [18] = test system: SN12C
# [19] = test system: U-251
Structure (SMILES),GI50 [1],GI50 [2],GI50 [3],GI50 [4],GI50 [5],GI50 [6],GI50 [7],GI50 [8],GI50 [9],GI50 [10],GI50 [11],GI50 [12],GI50 [13],GI50 [14],GI50 [15],GI50 [16],GI50 [17],GI50 [18],GI50 [19]
CO/C=C(/C(=O)OC)c1ccccc1Oc1c(F)c(F)c(F)c(F)c1F,36.7 µM (inactive),> 100 µM (inactive),30.1 µM (inactive),33 µM (inactive),32.7 µM (inactive),54.2 µM,25.8 µM (inactive),24 µM (inactive),32.4 µM (inactive),35.3 µM (inactive),38.2 µM (inactive),29.7 µM (inactive),7.69 µM (inactive),80.5 µM (inactive),50.1 µM (inactive),55.7 µM (inactive),47.9 µM (inactive),42.9 µM (inactive),44.7 µM (inactive)
CC(=O)OC(Cc1c(O)c2c(C)cccc2oc1=O)C(C)(C)O (centres undefined),> 100 µM (inactive),> 100 µM (inactive),88.5 µM (inactive),> 100 µM (inactive),> 100 µM (inactive),> 100 µM,> 100 µM (inactive),> 100 µM (inactive),> 100 µM (inactive),> 100 µM (inactive),> 100 µM (inactive),> 100 µM (inactive),46.8 µM (inactive),> 100 µM (inactive),91.4 µM (inactive),88.1 µM (inactive),> 100 µM (inactive),> 100 µM (inactive),> 100 µM (inactive)
CC[C@@H](C)[C@H](NC(=O)[C@H](Cc1ccccc1)NCC(F)(F)F)C(=O)OC(C)(C)C,> 100 µM (inactive),> 100 µM (inactive),74.8 µM (inactive),> 100 µM (inactive),> 100 µM (inactive),> 100 µM,> 100 µM (inactive),> 100 µM (inactive),> 100 µM (inactive),> 100 µM (inactive),> 100 µM (inactive),> 100 µM (inactive),67.3 µM (inactive),> 100 µM (inactive),> 100 µM (inactive),> 100 µM (inactive),> 100 µM (inactive),> 100 µM (inactive),> 100 µM (inactive)
Cc1ccc(S(=O)(=O)N/N=C/C(=C/c2ccc(Cl)cc2)CC(/C=N/NS(=O)(=O)c2ccc(C)cc2)=C\c2ccc(Cl)cc2)cc1,4.94 µM (inactive),6.15 µM (inactive),2.98 µM (inactive),25.8 µM (inactive),13 µM (inactive),3.58 µM,3.68 µM (inactive),7.87 µM (inactive),2.1 µM (inactive),10.8 µM (inactive),2.86 µM (inactive),3.72 µM (inactive),2.55 µM (inactive),2.63 µM (inactive),5.06 µM (inactive),5.52 µM (inactive),44.4 µM (inactive),7.08 µM (inactive),4.78 µM (inactive)
O=C(O)CCn1cnc2c(S)ncnc21,> 100 µM (inactive),> 100 µM (inactive),> 100 µM (inactive),> 100 µM (inactive),> 100 µM (inactive),> 100 µM,> 100 µM (inactive),> 100 µM (inactive),> 100 µM (inactive),> 100 µM (inactive),> 100 µM (inactive),> 100 µM (inactive),> 100 µM (inactive),> 100 µM (inactive),> 100 µM (inactive),> 100 µM (inactive),> 100 µM (inactive),> 100 µM (inactive),> 100 µM (inactive)
NC(=S)N/N=C\c1ccc(OCc2cccc(COc3ccc(/C=N/NC(N)=S)cc3)n2)cc1,> 100 µM (inactive),2.39 µM (inactive),45.7 µM (inactive),34.8 µM (inactive),> 100 µM (inactive),43.7 µM,> 100 µM (inactive),> 100 µM (inactive),> 100 µM (inactive),43.4 µM (inactive),32.5 µM (inactive),63.8 µM (inactive),34.7 µM (inactive),> 100 µM (inactive),> 100 µM (inactive),22.9 µM (inactive),> 100 µM (inactive),> 100 µM (inactive),45.4 µM (inactive)
O=[N+]([O-])c1ccc(C(O)(C#CCN2CCCC2)c2ccccc2)cc1 (centres undefined),23.3 µM (inactive),77.4 µM (inactive),24.5 µM (inactive),> 100 µM (inactive),54.6 µM (inactive),60.7 µM,28.9 µM (inactive),41.8 µM (inactive),16.2 µM (inactive),17.5 µM (inactive),53.7 µM (inactive),24.1 µM (inactive),25.8 µM (inactive),36.6 µM (inactive),27 µM (inactive),17.6 µM (inactive),80.7 µM (inactive),38.3 µM (inactive),38.9 µM (inactive)
CC(C)(O)/C1=C/C=C/CCCCCCCCCC1,> 100 µM (inactive),> 100 µM (inactive),30.3 µM (inactive),> 100 µM (inactive),> 100 µM (inactive),> 100 µM,1.19 µM (inactive),> 100 µM (inactive),> 100 µM (inactive),> 100 µM (inactive),> 100 µM (inactive),> 100 µM (inactive),28.1 µM (inactive),> 100 µM (inactive),> 100 µM (inactive),> 100 µM (inactive),> 100 µM (inactive),> 100 µM (inactive),> 100 µM (inactive)
COC(=O)C(Cc1c[nH]c2ccccc12)NC1=Nc2ccncc2S(=O)(=O)N1c1ccccc1 (centres undefined),> 100 µM (inactive),35 µM (inactive),14.1 µM (inactive),41.4 µM (inactive),> 100 µM (inactive),77.6 µM,56.1 µM (inactive),31.3 µM (inactive),28.2 µM (inactive),35.6 µM (inactive),33.2 µM (inactive),32.1 µM (inactive),15.3 µM (inactive),34 µM (inactive),38.9 µM (inactive),28.4 µM (inactive),56.5 µM (inactive),78.3 µM (inactive),41.5 µM (inactive)
O=c1oc2ccccc2cc1-c1cn2ccccc2n1,2.24 µM (inactive),11.9 µM (inactive),5.18 µM (inactive),7.82 µM (inactive),11.4 µM (inactive),16.7 µM,4.5 µM (inactive),10.5 µM (inactive),12.6 µM (inactive),8.51 µM (inactive),13.8 µM (inactive),4.1 µM (inactive),18.6 µM (inactive),3.21 µM (inactive),2.96 µM (inactive),4.4 µM (inactive),4.01 µM (inactive),4.6 µM (inactive),2.33 µM (inactive)
Cc1nnc(N)nc1C/C=C/C(Sc1ccc(Cl)cc1)c1ccccc1 (centres undefined),3.73 µM (inactive),2.13 µM (inactive),0.235 µM (active),8.02 µM (inactive),3.64 µM (inactive),3.25 µM,3.27 µM (inactive),3.56 µM (inactive),2.26 µM (inactive),4.73 µM (inactive),3.95 µM (inactive),3.15 µM (inactive),2.56 µM (inactive),5.04 µM (inactive),2.4 µM (inactive),6.78 µM (inactive),3.86 µM (inactive),4.41 µM (inactive),2.91 µM (inactive)
CCOC(=O)c1cn2c(n1)sc1cc(Cl)ccc12,33.6 µM (inactive),> 100 µM (inactive),5.45 µM (inactive),10.7 µM (inactive),18.7 µM (inactive),5.64 µM,24.7 µM (inactive),4.54 µM (inactive),7.78 µM (inactive),18.3 µM (inactive),4.2 µM (inactive),5.68 µM (inactive),2.96 µM (inactive),21.9 µM (inactive),30.6 µM (inactive),76.2 µM (inactive),52 µM (inactive),11.4 µM (inactive),14.1 µM (inactive)
Cc1nc2ccccc2n1Cc1ccc(NC(=S)Nc2ccccc2)cc1,28.7 µM (inactive),61.1 µM (inactive),36.8 µM (inactive),73.8 µM (inactive),21.1 µM (inactive),72.8 µM,> 100 µM (inactive),54.6 µM (inactive),70.6 µM (inactive),56.1 µM (inactive),27.4 µM (inactive),46.9 µM (inactive),23.3 µM (inactive),60.1 µM (inactive),91 µM (inactive),66.7 µM (inactive),> 100 µM (inactive),76.4 µM (inactive),82.6 µM (inactive)
C=C(C)COC1CCCCO1 (centres undefined),> 100 µM (inactive),> 100 µM (inactive),> 100 µM (inactive),> 100 µM (inactive),> 100 µM (inactive),> 100 µM,> 100 µM (inactive),> 100 µM (inactive),> 100 µM (inactive),> 100 µM (inactive),> 100 µM (inactive),> 100 µM (inactive),> 100 µM (inactive),> 100 µM (inactive),> 100 µM (inactive),> 100 µM (inactive),> 100 µM (inactive),> 100 µM (inactive),> 100 µM (inactive)
Nc1ccc(S(=O)(=O)C23CC4CC(CC(C4)C2)C3)cc1,23.1 µM (inactive),> 100 µM (inactive),49.8 µM (inactive),78 µM (inactive),> 100 µM (inactive),> 100 µM,> 100 µM (inactive),> 100 µM (inactive),70.8 µM (inactive),> 100 µM (inactive),> 100 µM (inactive),72.9 µM (inactive),,> 100 µM (inactive),> 100 µM (inactive),> 100 µM (inactive),> 100 µM (inactive),> 100 µM (inactive),> 100 µM (inactive)
